Data reported in US10450549B2, “Aryloxyphenoxypropionate tolerance in turfrgass species and use of AAD1 as a selectable marker” (Dow AgroSciences, LLC, priority 2004, dated 2019).

Legend:
[1] = test system: wt ARBTH; assay: In vitro plate test of herbicide cross resistance: wild-type Arabidopsis; assay type: in vivo, Arabidopsis thaliana; details: 7 days
Method: (§1) The ability of AAD1 (v3) to provide resistance to other aryloxyphenoxyalkanoate herbicides in transgenic Arabidopsis was determined using a modified in vitro plate assay. Seeds from wild-type Arabidopsis thaliana as well as Arabidopsis thaliana containing the plant optimized AAD1 (v3) gene (T4 homozygous plants id=PAAD1.315.064) were sterilized by agitating for 10 min in a 50% bleach solution. These seeds were then rinsed four times with sterile water to remove the bleach.
(§2) Dose response assays utilized a nutrient media (see below) supplemented with various rates of test compounds. The test compounds were added to the heated media (55° C.) as concentrated solutions in DMSO. Control wells had the appropriate amount of DMSO without any additional compound. The final concentration of DMSO never exceeded 1% (v/v). After thorough mixing, a 6 mL aliquot of the warm media containing the appropriate concentration of compound was added to each well of a 6-well, flat bottom, polystyrene tissue culture tray (Falcon 353046, Becton Dickson and Company, Franklin Lakes, N.J.). After the media solidified, approximately 20 to 30 Arabidopsis seeds were applied on top of the solidified media and the remaining 2 mL of media was poured over the seeds. The plates were lightly agitated to disperse the seeds, covered and allowed to cool until the media had completely solidified. The plates were incubated for 7 days at 25° C. under continual fluorescent lighting (75 μE m^−2 s^−1). Nutrient Media Composition was as described in Example 2.2 and in Somerville and Orgen (1982).
(§3) Assessment of Growth Reduction. The apical portion of the Arabidopsis plants grown in the treated media was assessed visually relative to the apical portion of the plants grown in the media containing only DMSO. Values were recorded as % growth reduction. Assessments of root growth inhibition of the Arabidopsis plants grown in the treated media were achieved by carefully extracting the plants from the media and measuring the length of the root. These root lengths were then compared to the root length of the control plants to determine a % growth reduction. A minimum of five plants were assessed for each treatment. The values recorded are an average of all the plants assessed. The calculated concentration to reach 50% inhibition effect (I50) were determined for both root and shoots of wildtype and AAD1-transformed Arabidopsis. The ratios of resistant to sensitive biotypes are included in Table 19. A ratio>2 for both root and shoot measurements generally signifies significant resistance. The higher the ratio, the greater the level of resistance. […] The broad phenoxy auxin resistance is the first reported in planta.

[2] = test system: PAAD1.315.064 ARBTH; assay: In vitro plate test of herbicide cross resistance: homozygous T4 AAD1 (v3) Arabidopsis; assay type: in vivo, Arabidopsis thaliana; details: for root ratio / shoot ratio: resistant to sensitive biotype, >2 signifies resistance; for PAAD1.315.064 ARBTH root 150 / PAAD1.315.064 T3 ARBTH shoot 150: 7 days
Method: as §1, §2, §3

[3] = target: T1, AAD1 (v1) (Sphingobium herbicidovorans, UniProt Q8KSC8); assay: Colorimetric phenol detection assay of AAD1 (v1) activity (purified enzyme or E. coli extract); assay type: biochemical
T1 construct: made in house; host or cells: E. coli BL-21 Star (DE3), plasmid pDAB3203
T1 sequence (Q8KSC8 whole entry): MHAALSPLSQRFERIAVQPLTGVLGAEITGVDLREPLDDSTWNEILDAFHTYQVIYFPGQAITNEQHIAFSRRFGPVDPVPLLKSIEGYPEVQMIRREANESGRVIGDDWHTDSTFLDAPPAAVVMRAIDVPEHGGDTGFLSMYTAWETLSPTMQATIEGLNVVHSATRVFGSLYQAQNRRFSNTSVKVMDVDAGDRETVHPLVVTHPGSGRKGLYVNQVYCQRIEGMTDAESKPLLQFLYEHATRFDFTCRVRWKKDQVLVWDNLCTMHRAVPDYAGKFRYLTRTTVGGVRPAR

In the case of Nc1c(Cl)c(Cl)nc(C(=O)O)c1Cl [Picloram], the “wt ARBTH root 150” value [1] is reported as 0.3 ppm, the “wt ARBTH shoot 150” value [1] is reported as 1 ppm and the root ratio [2] is reported as 0.5. The shoot ratio [2] was 0.5, the “resistance afforded by AAD1 (v3) in plate test” value ([2]; root and shoot assessment) was “did not effectively protect” and the “PAAD1.315.064 ARBTH root 150” value [2] was 0.15 ppm. The “PAAD1.315.064 T3 ARBTH shoot 150” value [2] was 0.5 ppm.
With Cc1cc(Cl)ccc1OCC(=O)O [MCPA] the “rate of product formation relative to 2,4-D” value ([3]; 1 mM, 27 μg crude recombinant AAD1 (v1) per assay) was 55%, the A510 ([3]; Table 8, 1 mM, 27 μg crude recombinant AAD1 (v1) extract from E. coli) was 0.097 and the “% 2,4-D” value ([3]; Table 8, relative to 2,4-D, crude AAD1 (v1) extract) was 55%. The “wt ARBTH root 150” value [1] was 0.01 ppm, the “wt ARBTH shoot 150” value [1] was 0.2 ppm and the root ratio [2] was 3. For the same molecule, the shoot ratio [2] was 5, the “PAAD1.315.064 ARBTH root 150” value [2] was 0.03 ppm and the “PAAD1.315.064 T3 ARBTH shoot 150” value [2] was 1 ppm.
